ChEMBL document CHEMBL1132671, “The synthesis of a new class of oxytocin antagonists” (Bioorg Med Chem Lett, 1999)
Active and inactive are the calls of the source. No cut-off for these calls is given here.

Key:
Rattus norvegicus [1] = organism: Rattus norvegicus; assay: Dose inhibiting the response of a dose of oxytocin to half of the response in rat; assay type: functional; conditions: for ED50: Rattus norvegicus, read-out: ID50 (the source's name)
Oxytocin receptor = target: T1, Oxytocin receptor (Homo sapiens, UniProt P30559); assay: […] antagonistic activity against cloned human oxytocin receptor over-expressed in a stable HEK293 cell line; assay type: functional
T1 sequence (P30559 whole entry): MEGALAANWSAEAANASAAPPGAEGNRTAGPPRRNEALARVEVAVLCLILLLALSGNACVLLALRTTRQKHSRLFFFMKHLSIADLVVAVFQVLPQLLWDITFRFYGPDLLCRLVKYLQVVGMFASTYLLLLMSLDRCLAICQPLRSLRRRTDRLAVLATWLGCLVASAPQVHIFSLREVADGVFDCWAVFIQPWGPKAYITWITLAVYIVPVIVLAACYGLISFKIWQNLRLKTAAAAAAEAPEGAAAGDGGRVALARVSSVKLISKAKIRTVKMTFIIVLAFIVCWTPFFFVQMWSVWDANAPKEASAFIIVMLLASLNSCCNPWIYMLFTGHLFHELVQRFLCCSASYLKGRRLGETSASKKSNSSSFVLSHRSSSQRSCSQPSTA

Rattus norvegicus [2] = organism: Rattus norvegicus; assay: Dose inhibiting the response of a dose of oxytocin to half of the response in rat;NA means no activity.; assay type: functional, organism-based

| Structure (SMILES) | Ki (Oxytocin receptor) | ED50 (Rattus norvegicus [1]) | ID50 (Rattus norvegicus [2]) | ID50 (Rattus norvegicus [1]) |
| --- | --- | --- | --- | --- |
| CC[C@@H](C)[C@@H]1NC(=O)[C@H]([C@@H](C)CC)NC(=O)[C@@H](Cc2c[nH]c3ccccc23)NC(=O)CCSCC[C@@H](C(=O)N(C)[C@@H](CCCN)C(N)=O)NC(=O)[C@H](CC(N)=O)NC1=O |  | 0.0029 µmol/kg |  |  |
| CC[C@@H](C)[C@@H]1NC(=O)[C@H]([C@@H](C)CC)NC(=O)[C@@H](Cc2c[nH]c3ccccc23)NC(=O)CCSCC[C@@H](C(N)=O)NC(=O)[C@H](CC(N)=O)NC1=O |  | 0.048 µmol/kg |  |  |
| CC[C@@H](C)[C@@H]1NC(=O)[C@H]([C@@H](C)CC)NC(=O)[C@@H](Cc2c[nH]c3ccccc23)NC(=O)CCCSCC2CCCN2C(=O)[C@H](CC(N)=O)NC1=O (single isomer, unassigned) | 1000 nM |  | inactive |  |
| CC[C@@H](C)[C@@H]1NC(=O)[C@H]([C@@H](C)CC)NC(=O)[C@@H](Cc2c[nH]c3ccccc23)NC(=O)CCCSCC(CCCN)NC(=O)[C@H](CC(N)=O)NC1=O (single isomer, unassigned) | 26 nM |  |  | 32 nmol/kg |

More lines, main results first:

| Ki (Oxytocin receptor) | Structure (SMILES) | ED50 (Rattus norvegicus [1]) | ID50 (Rattus norvegicus [2]) | ID50 (Rattus norvegicus [1]) |
| --- | --- | --- | --- | --- |
| 2.8 nM | CC[C@@H](C)[C@@H]1NC(=O)[C@H]([C@@H](C)CC)NC(=O)[C@@H](Cc2c[nH]c3ccccc23)NC(=O)CCCSCC(CCCCN)NC(=O)[C@H](CC(N)=O)NC1=O (single isomer, unassigned) | 0.017 µmol/kg |  |  |
| 4 nM | CC[C@@H](C)[C@@H]1NC(=O)[C@H]([C@@H](C)CC)NC(=O)[C@@H](Cc2c[nH]c3ccccc23)NC(=O)CCCSC[C@H](CCCN)NC(=O)[C@H](CC(N)=O)NC1=O |  |  | 5.4 nmol/kg |
